Patent publication US20150231242A1, “COMBINATION OF CD37 ANTIBODIES WITH BENDAMUSTINE” (Boehringer Ingelheim International GmbH, priority 2012, published 2015)

Experiments:
[1] = tested on: Raji Burkitt lymphoma cells; experiment: Apoptosis assay (Annexin V/PI staining, FACS) on Raji cells; format: cell-based, human; conditions: 48 h, A2 10 μg/ml, Annexin V positive cells, mean of three experiments
[2] = tested on: Ramos Burkitt lymphoma cells; experiment: Apoptosis assay (Annexin V/PI staining, FACS) on Ramos cells; format: cell-based, human; conditions: 48 h, A2 10 μg/ml, Annexin V positive cells, mean of three experiments
[3] = tested on: DOHH2 tumors (human follicular lymphoma); experiment: Efficacy in subcutaneous DOHH2 human follicular lymphoma xenograft (Example 3); format: in vivo, C.B-17 scid mice; conditions: day 16; for anti-tumor effect in words: DOHH2 tumors
DoHH2 tumor cells = experiment: DoHH2 human xenograft tumor model (Example 2); format: in vivo, CB-17 SCID mice; conditions: A2 10 mg/kg twice weekly, bendamustine 10 mg/kg twice weekly ip; present-tense example
[4] = Body weight / tolerability in DOHH2 tumor-bearing mice (Example 3); conditions: for tolerability in words: body weight as indicator of tolerability

Cn1c(CCCC(=O)O)nc2cc(N(CCCl)CCCl)ccc21 [Bendamustine, 4-[5-[Bis(2-chloroethyl)amino]-1-methylbenzimidazol-2-yl]butanoic acid]
% apoptotic cells ([1]; bendamustine 200 μM column): 10% | % apoptotic cells ([1]; bendamustine 400 μM column): 13% | % apoptotic cells ([2]; bendamustine 100 μM column): 19% | % apoptotic cells ([2]; bendamustine 400 μM column): 35% | anti-tumor effect in words [3]: significant inhibition of tumor growth | anti-tumor effect in words ([3]; listed as bendamustine): growth inhibited | CR (complete tumor regression) ([3]; 7 mice per group): 0 x/7 | PR (partial tumor regression) ([3]; 7 mice per group): 0 x/7 | TGI ([3]; median, antibody A2 10 mg/kg i.p. twice weekly, bendamustine 20 mg/kg i.p. two injections): 57% | anti-tumor effect in words (DoHH2 tumor cells): significant anti-tumor effect | tolerability in words [4]: resulted in weight loss | tolerability in words ([4]; listed as bendamustine): moderately tolerated | body weight loss in median ([4]; within the first week of treatment): up to 7.9%
